This passage reports IC50 results from patent publication US6734194B2, “Method of use of (imidazol-5-yl)methyl-2-quinolinone derivatives to inhibit smooth muscle cell proliferation” (Janssen Pharmaceutica N.V., priority 1997, dated 2004).

Structures are written as SMILES.

Holding throughout (format): cell-based
Experiment [1] concerns human pulmonary artery smooth muscle cells (PASMC). As to the kind of experiment: Inhibition of smooth muscle cell proliferation, PASMC. Particulars: 144 h, PASMC cell line, incubated six days, Coulter cell count normalized to DMSO-treated controls, read-out: IC50 (concentration of test compound producing a 50% inhibition of cell proliferation). An excerpt: (§1) The effects of the compounds of the present invention were studied in human pulmonary artery smooth muscle cells (PASMC), human coronary artery smooth muscle cells (CASMC), and rat A10 arterial smooth muscle cells growing under standard tissue culture conditions. CASMC and PASMC cell cultures were purchased from Clonetics (San Diego, Calif.). A10 smooth muscle cells were purchased from the American Type Culture Collection (Bethesda, Md.). Cells were inoculated at an initial cell density of 50,000 cells per well in six-well plastic cluster tissue culture dishes in 3.0 ml of complete growth medium. Test compounds were dissolved in dimethysulfoxide (DMSO) and added in a 3 μl volume to each well to produce the desired concentrations of said test compound (5, 10, 50, 100 and 500 nM final concentrations). Cells were incubated for six days. On day 4, fresh medium plus a fresh solution containing the test compound were added to the cell cultures. On day 6, the growth medium was removed by aspiration. The cells were detached by trypsinizing in 1.0 ml of trypsin-EDTA solution. The cell suspensions were transferred to 20 ml of an isotonic diluent and 0.5 ml of the diluted cell suspension was counted with a Coulter particle counter. Cell counts from test compound-treated cultures were normalized to cell counts obtained from DMSO-treated controls and expressed as percent inhibition. […]

The subject of experiment [2] is rat A10 arterial smooth muscle cells. In words: Inhibition of smooth muscle cell proliferation, A10 cells. The note with it: 144 h, A10 cell line, incubated six days, Coulter cell count normalized to DMSO-treated controls, read-out: IC50 (concentration of test compound producing a 50% inhibition of cell proliferation).
Text: as §1

Experiment [3] concerns human coronary artery smooth muscle cells (CASMC). As to the kind of experiment: Inhibition of smooth muscle cell proliferation, CASMC. Particulars: 144 h, CASMC cell line, incubated six days, Coulter cell count normalized to DMSO-treated controls, read-out: IC50 (concentration of test compound producing a 50% inhibition of cell proliferation).
Text: as §1

In the case of `Cn1cncc1C(N)(c1ccc(Cl)cc1)c1ccc2c(c1)c(-c1cccc(Cl)c1)cc(=O)n2C` (single isomer, unassigned; (+)) [Co. No. 75, (+)-6-[amino(4-chloro-phenyl)(1-methyl-1H-imidazol-5-yl)methyl]-4-(3-chlorophenyl)-1-methyl-2(1H)-quinolinone], the IC50 in experiment [1] was 24 nM; in experiment [2] it was 14 nM; in experiment [3] it was 16 nM.
